Source: patent publication US20220330594A1 (WisTa Laboratories Ltd., priority 2019, published 2022)
Where a name gives a salt, the structure may show the parent alone.

How the values were obtained:
wild-type mice = assay: Behaviour: problem solving task in the open field water maze; assay type: in vivo
Description: (§1) The treatment schedule used to study the negative interaction between symptomatic treatments and LMTM was designed to model the clinical situation in which subjects are first treated chronically with a cholinesterase inhibitor or memantine before receiving LMTM. In what follows, we summarise some of the key results obtained for the AChEI, rivastigmine. Wild-type and L1 mice (n=7-16 for each group) were pre-treated with rivastigmine (0.1 or 0.5 mg/kg/day) or memantine (2 or 20 mg/kg/day) or vehicle for 5 weeks by gavage. For the following 6 weeks, LMTM (5 and 15 mg/kg) or vehicle were added to this daily treatment regime, also by gavage. Animals were tested behaviourly during weeks 10 and 11 using a problem solving task in the open field water maze and then sacrificed for immunohistochemical and other tissue analyses.

Mitochondrial complex IV = assay: Direct measurement of mitochondrial complex IV activity after treatment; assay type: in vivo; conditions: wild type mice
Description: as §1

synaptophysin = assay: Quantitative immunohistochemistry of synaptophysin in brain sections; assay type: in vivo; conditions: wild-type mice
Description: Wild-type and L1 mice (n=7-16 for each group) were pre-treated with rivastigmine (0.1 or 0.5 mg/kg/day) or memantine (2 or 20 mg/kg/day) or vehicle for 5 weeks by gavage. For the following 6 weeks, LMTM (5 and 15 mg/kg) or vehicle were added to this daily treatment regime, also by gavage. Animals were tested behaviourly during weeks 10 and 11 using a problem solving task in the open field water maze and then sacrificed for immunohistochemical and other tissue analyses.

tau transgenic L1 mice = assay: Treatment effects of LMTM and rivastigmine in tau transgenic L1 mice; assay type: in vivo; conditions: results not shown
Text: In the L1 mouse model which was used in some of the present studies, there is over-expression of a three-repeat tau fragment encompassing residues 296-390 of the 2N4R tau isoform under the control of the Thy 1 promotor in an NMRI mouse strain (WO2002/059150). This fragment corresponds to the segment of tau first identified within the proteolytically stable core of the PHF (Wischik et al., 1988a; Wischik et al., 1988b) and recently confirmed by cryo-electronmicroscopy of PHFs in AD and tau filaments in Pick's disease (Fitzpatrick et al., 2017; Falcon et al., 2018).
The treatment schedule used to study the negative interaction between symptomatic treatments and LMTM was designed to model the clinical situation in which subjects are first treated chronically with a cholinesterase inhibitor or memantine before receiving LMTM. In what follows, we summarise some of the key results obtained for the AChEI, rivastigmine. […]
For measurement of acetylcholine (ACh) levels in hippocampus, animals (wild-type or L1) were treated with LMTM (5 mg/kg/day for 2 weeks) after prior treatment for 2 weeks with or without rivastigmine (0.5 mg/kg/day). […] Levels of ACh were measured in hippocampus using an implanted microdialysis probe and HPLC analysis of the extracellular fluid.

[1] = system: acetylcholine (ACh) levels in hippocampus; assay: Hippocampal acetylcholine levels by implanted microdialysis probe and HPLC; assay type: in vivo; conditions: wild-type mice
Description: […] Rivastigmine was administered subcutaneously with an Alzet minipump whereas LMTM was administered by oral gavage. Levels of ACh were measured in hippocampus using an implanted microdialysis probe and HPLC analysis of the extracellular fluid.
Data are presented as group averages and standard errors of mean and were analysed using parametric statistics, with alpha set to 0.05.

[2] = system: ACh levels in the hippocampus; assay: Hippocampal ACh microdialysis with rivastigmine and scopolamine in the perfusion fluid; assay type: in vivo, wild type mice
Text: Under the condition of cholinesterase inhibition used in these experiments (a very small amount of a cholinesterase inhibitor, 100 nanomolar rivastigmine, added to the perfusion fluid), ACh levels in the hippocampus rise, and when they rise strongly enough, they limit additional ACh release by activating pre-synaptic muscarinic receptors of the M2/M4 subtype (so-called negative feedback receptors).
In this situation, adding scopolamine ([…]) to the perfusion fluid blocks these presynaptic receptors and, as a consequence, ACh levels rise by 3-5 fold. The fact that LMTM is not additive with rivastigmine in these experiments supports the conclusion that LMTM has a different mechanism of action from rivastigmine. In other words, although LMTM has been described as being a weak inhibitor of cholinesterases in high concentrations, the present effects seem to be unrelated to cholinesterase inhibition, because there is no additive effect with small quantities of rivastigmine.

[3] = LMTM alone 5 or 15 mg/kg/day, approximate rounded percentage

| SMILES | spatial recognition memory (wild-type mice) | complex IV activity following LMTM treatment (Mitochondrial complex IV) | Synaptophysin, ↑ (increase) (synaptophysin; [3]) | increase in mean synaptophysin levels (synaptophysin; mean of hippocampus, visual cortex, diagonal band and septum, LMTM alone (FIG. 1B)) [fold] | treatment effects in L1 mice compared with wild-type mice (tau transgenic L1 mice) | increase in basal ACh levels in hippocampus ([1]; LMTM 5 mg/kg/day for 2 weeks, oral gavage, significant (FIG. 1A)) [fold] | ACh release, ↑ (increase) [1, 3] | effect on ACh levels in scopolamine experiments ([2]; wild type mice, 100 nanomolar rivastigmine in the perfusion fluid, scopolamine blocking M2/M4 receptors) | rise in ACh levels in the hippocampus ([2]; scopolamine (μM) added to perfusion fluid containing 100 nanomolar rivastigmine) |
| --- | --- | --- | --- | --- | --- | --- | --- | --- | --- |
| CN(C)c1ccc2c(c1)Sc1cc(N(C)C)ccc1N2 [LMTM, hydromethylthionine mesylate] | not associated with improvement | did not show any increase | ↑ × 300% | 3 | larger and more generalised | 2 | ↑ × 200% | less than that seen with rivastigmine alone |  |
| CN1[C@@H]2C[C@@H](OC(=O)[C@H](CO)c3ccccc3)C[C@H]1[C@@H]1O[C@@H]12 [scopolamine, reference compound] |  |  |  |  |  |  |  |  | 3-5 fold |
